# Results as given in US9359358B2, “Cyclohexyl azetidine derivatives as JAK inhibitors” (Incyte Holdings Corporation, priority 2011, dated 2016).
# Counter-ions that a name gives are not always drawn.
# Columns and labels:
# human JAK1 = target: T1, human JAK1 (Homo sapiens, UniProt P23458); assay: In Vitro JAK Kinase Assay (HTRF, phosphorylation of a biotinylated peptide), JAK1; type: biochemical; conditions: catalytic domain a.a. 837-1142, assay of Example A
# T1 construct: human JAK1 (a.a. 837-1142); His tag (N); made in house; host or cells: insect cells (baculovirus)
# How it was run: (§1)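 HTRF detection (SA-APC plus Eu-labeled anti-phosphotyrosine Py20, 40 min after EDTA stop) quantified biotinylated-peptide phosphorylation. Kinase reactions with human JAK1 or JAK2 catalytic domains lasted 1 h at room temperature.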
# human JAK2 = target: T2, human JAK2 (Homo sapiens, UniProt O60674); assay: In Vitro JAK Kinase Assay (HTRF, phosphorylation of a biotinylated peptide), JAK2; type: biochemical; conditions: assay of Example A
# T2 construct: JAK2 (a.a. 828-1132); His tag (N); made in house; host or cells: insect cells (baculovirus)
# How it was run: as §1
# T1 sequence (P23458 849-1154): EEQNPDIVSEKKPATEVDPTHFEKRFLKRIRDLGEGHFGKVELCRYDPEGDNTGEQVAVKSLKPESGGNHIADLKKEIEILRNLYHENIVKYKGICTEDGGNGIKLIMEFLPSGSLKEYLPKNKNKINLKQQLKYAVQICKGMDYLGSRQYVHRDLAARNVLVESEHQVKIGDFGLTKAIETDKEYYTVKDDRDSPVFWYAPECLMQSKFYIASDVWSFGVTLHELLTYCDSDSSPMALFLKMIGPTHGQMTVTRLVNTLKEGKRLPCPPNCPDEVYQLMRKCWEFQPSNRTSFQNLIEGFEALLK
# T2 sequence (O60674 828-1132): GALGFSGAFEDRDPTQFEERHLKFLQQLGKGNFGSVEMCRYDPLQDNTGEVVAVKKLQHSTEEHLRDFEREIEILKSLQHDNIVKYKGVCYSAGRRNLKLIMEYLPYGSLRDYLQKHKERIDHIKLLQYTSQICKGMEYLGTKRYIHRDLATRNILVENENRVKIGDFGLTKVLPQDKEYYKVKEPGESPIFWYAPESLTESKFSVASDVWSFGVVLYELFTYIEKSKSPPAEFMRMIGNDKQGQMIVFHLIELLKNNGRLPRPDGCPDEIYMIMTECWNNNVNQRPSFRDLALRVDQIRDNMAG
IC50 (human JAK1; Table 5),JAK2/JAK1 IC50 ratio (human JAK2; Table 5),Structure (SMILES),IC50 (human JAK1; Table 4),JAK2/JAK1 IC50 ratio (human JAK2; Table 4)
< 20 nM,≧10,"N#CCC1(n2cc(-c3ncnc4[nH]ccc34)cn2)CN([C@H]2CC[C@@H](Oc3cc(CNC4CC4)cc(C(F)(F)F)n3)CC2)C1 [Example 72, {1-(cis-4-{[4-[(cyclopropylamino)methyl]-6-(trifluoromethyl)pyridin-2-yl]oxy}cyclohexyl)-3-[4-(7H-pyrrolo[2,3-d]pyrimidin-4-yl)-1H-pyrazol-1-yl]azetidin-3-yl}acetonitrile tris(trifluoroacetate)]",,
< 10 nM,≧10,"CC(C)(O)c1cc(O[C@H]2CC[C@@H](N3CC(CC#N)(n4cc(-c5ncnc6[nH]ccc56)cn4)C3)CC2)nc(C(F)(F)F)c1 [Example 69, {1-(cis-4-{[4-(1-hydroxy-1-methylethyl)-6-(trifluoromethyl)pyridin-2-yl]oxy}cyclohexyl)-3-[4-(7H-pyrrolo[2,3-d]pyrimidin-4-yl)-1H-pyrazol-1-yl]azetidin-3-yl}acetonitrile bis(trifluoroacetate)]",,
< 10 nM,≧10,"CC(C)NC(=O)c1cc(O[C@H]2CC[C@@H](N3CC(CC#N)(n4cc(-c5ncnc6[nH]ccc56)cn4)C3)CC2)nc(C(F)(F)F)c1 [Example 83, 2-[(cis-4-{3-(cyanomethyl)-3-[4-(7H-pyrrolo[2,3-d]pyrimidin-4-yl)-1H-pyrazol-1-yl]azetidin-1-yl}cyclohexyl)oxy]-N-isopropyl-6-(trifluoromethyl)isonicotinamide bis(trifluoroacetate)]",,

# The remaining lines, values behind:
Structure (SMILES),IC50 (human JAK1; Table 5),JAK2/JAK1 IC50 ratio (human JAK2; Table 5),IC50 (human JAK1; Table 4),JAK2/JAK1 IC50 ratio (human JAK2; Table 4)
"CCCCN(C)Cc1cc(O[C@H]2CC[C@@H](N3CC(CC#N)(n4cc(-c5ncnc6[nH]ccc56)cn4)C3)CC2)nc(C(F)(F)F)n1.O=C(O)C(F)(F)F.O=C(O)C(F)(F)F.O=C(O)C(F)(F)F [Example 36, {1-(cis-4-{[6-{[butyl(methyl)amino]methyl}-2-(trifluoromethyl)pyrimidin-4-yl]oxy}cyclohexyl)-3-[4-(7H-pyrrolo[2,3-d]pyrimidin-4-yl)-1H-pyrazol-1-yl]azetidin-3-yl}acetonitrile tris(trifluoroacetate)]",,,< 10 nM,≧10
"N#CCC1(n2cc(-c3ncnc4[nH]ccc34)cn2)CN([C@H]2CC[C@@H](Oc3cc(CNCCF)nc(C(F)(F)F)n3)CC2)C1.O=C(O)C(F)(F)F.O=C(O)C(F)(F)F.O=C(O)C(F)(F)F [Example 15, {1-(cis-4-{[6-{[(2-fluoroethyl)amino]methyl}-2-(trifluoromethyl)pyrimidin-4-yl]oxy}cyclohexyl)-3-[4-(7H-pyrrolo[2,3-d]pyrimidin-4-yl)-1H-pyrazol-1-yl]azetidin-3-yl}acetonitrile tris(trifluoroacetate)]",,,< 10 nM,≧10
"N#CCC1(n2cc(-c3ncnc4[nH]ccc34)cn2)CN([C@H]2CC[C@@H](Oc3cc(C#N)nc(C(F)(F)F)n3)CC2)C1 [Example 54, 6-[(cis-4-{3-(cyanomethyl)-3-[4-(7H-pyrrolo[2,3-d]pyrimidin-4-yl)-1H-pyrazol-1-yl]azetidin-1-yl}cyclohexyl)oxy]-2-(trifluoromethyl)pyrimidine-4-carbonitrile bis(trifluoroacetate)]",,,< 10 nM,≧10
"C[C@H](CO)NCc1cc(O[C@H]2CC[C@@H](N3CC(CC#N)(n4cc(-c5ncnc6[nH]ccc56)cn4)C3)CC2)nc(C(F)(F)F)n1 [Example 17, {1-(cis-4-{[6-({[(1R)-2-hydroxy-1-methylethyl]amino}methyl)-2-(trifluoromethyl)pyrimidin-4-yl]oxy}cyclohexyl)-3-[4-(7H-pyrrolo[2,3-d]pyrimidin-4-yl)-1H-pyrazol-1-yl]azetidin-3-yl}acetonitrile tris(trifluoroacetate) (salt)]",,,< 10 nM,≧10
